In patent US9302999B2, “Substituted triazoles as herbicides” (E. I. DU PONT DE NEMOURS AND COMPANY, priority 2012, dated 2016):

What was measured:
Assay type in all cases: in vivo
[1] = test system: poinsettia, wild (wild poinsettia, Euphorbia heterophylla); assay: Test E pre-/postemergence: poinsettia, wild; details: scale 0 to 100
From the text: Seeds of plant species selected from corn (Zea mays), soybean (Glycine max), velvetleaf (Abutilon theophrasti), lambsquarters (Chenopodium album), poinsettia, wild (wild poinsettia, Euphorbia heterophylla), pigweed, palmer (palmer pigweed, Amaranthus palmeri), waterhemp (common waterhemp, Amaranthus rudis), smartweed (ladysthumb smartweed, Polygonum persicaria), surinam grass (Brachiaria decumbens), crabgrass, large (large crabgrass, Digitaria sanguinalis), crabgrass, Brazil (Brazilian crabgrass, Digitaria horizontalis), panicum, fall (fall panicum, Panicum dichotomiflorum), foxtail, giant (giant foxtail, Setaria faberii), foxtail, green (green foxtail, Setaria viridis), goosegrass (Eleusine indica), johnsongrass (Sorghum halepense), ragweed (common ragweed, Ambrosia elation), barnyardgrass (Echinochloa crus-galli), sandbur (southern sandbur, Cenchrus echinatus), arrowleaf sida (Sida rhombifolia), ryegrass, Italian (Italian ryegrass, Lolium multiflorum), dayflower, (VA) (Virginia dayflower, Commelina virginica), field bindweed (Convolvulus arvensis), cocklebur (common cocklebur, Xanthium strumarium), morningglory (Ipomoea coccinea), nightshade (eastern black nightshade, Solanum ptycanthum), kochia (Kochia scoparia), nutsedge, yellow (yellow nutsedge, Cyperus esculentus) and beggarticks (hairy beggarticks, Bidens pilosa) were planted into a silt loam soil and treated preemergence with test chemicals formulated in a non-phytotoxic solvent mixture which included a surfactant. At the same time, plants selected from these crop and weed species were planted in pots containing a growing medium comprising spaghnum peat moss, vermiculite, wetting agent and starter nutrients and treated with postemergence applications of some of the test chemicals formulated in the same manner. Plants ranged in height from 2 to 18 cm for postemergence treatments (1- to 4-leaf stage).
(§1) Treated plants and controls were maintained in a greenhouse for 14 to 21 days, after which time all species were compared to controls and visually evaluated. Plant response ratings, summarized in Table E, are based on a scale of 0 to 100 where 0 is no effect and 100 is complete control. A dash (-) response means no test result.

[2] = test system: foxtail, giant (giant foxtail, Setaria faberii); assay: Test F pre-/postemergence: foxtail, giant; details: Preemergence
From the text: (§2) Seeds of plant species selected from corn (Zea mays), soybean (Glycine max), velvetleaf (Abutilon theophrasti), lambsquarters (Chenopodium album), poinsettia, wild (wild poinsettia, Euphorbia heterophylla), pigweed, palmer (palmer pigweed, Amaranthus palmeri), waterhemp (common waterhemp, Amaranthus rudis), surinam grass (Brachiaria decumbens), crabgrass, Brazil (Brazilian crabgrass, Digitaria horizontalis), panicum, fall (fall panicum Panicum dichotomiflorum), crabgrass, large (large crabgrass, Digitaria sanguinalis), foxtail, giant (giant foxtail, Setaria faberii), foxtail, green (green foxtail Setaria viridis), goosegrass (Eleusine indica), ragweed (common ragweed, Ambrosia elatior), barnyardgrass (Echinochloa crus-galli), sandbur (southern sandbur, Cenchrus echinatus), arrowleaf sida (Sida rhombifolia), ryegrass, Italian (Italian ryegrass, Lolium multiflorum), dayflower, VA (Virginia (VA) dayflower, Commelina virginica), field bindweed (Convolvulus arvensis), cocklebur (common cocklebur, Xanthium strumarium), morningglory (Ipomoea coccinea), nightshade (eastern black nightshade, Solanum ptycanthum), kochia (Kochia scoparia), nutsedge, yellow (yellow nutsedge, Cyperus esculentus), johnsongrass (Sorghum halepense), smartweed (ladysthumb smartweed, Polygonum persicaria), and beggarticks (hairy beggarticks, Bidens pilosa), were planted into a silt loam soil and treated preemergence with test chemicals formulated in a non-phytotoxic solvent mixture which included a surfactant. At the same time, plants selected from these crop and weed species and also pigweed (Amaranthus retroflexus), waterhemp_RES1 (ALS/Triazine resistant common waterhemp, Amaranthus rudis) and waterhemp_RES2 (ALS/HPPD resistant common waterhemp, Amaranthus rudis) were planted in pots containing a planting medium comprising spaghnum peat moss, vermiculite, wetting agent and starter nutrients treated with postemergence applications of some of the test chemicals formulated in the same manner. Plants ranged in height from 2 to 18 cm for postemergence treatments (1- to 4-leaf stage).
as §1

[3] = test system: corn (Zea mays); assay: Test F pre-/postemergence: corn
From the text: as §2, §1

[4] = test system: Waterhemp; assay: Test C pre-/postemergence: waterhemp
From the text: Seeds of plant species selected from blackgrass (Alopecurus myosuroides), bromegrass, downy (downy bromegrass, Bromus tectorum), foxtail, green (green foxtail, Setaria viridis), ryegrass, Italian (Italian ryegrass, Lolium multiflorum), winter wheat (Triticum aestivum), wild oat (Avena fatua), galium (catchweed bedstraw, Galium aparine), bermudagrass (Cynodon dactylon), surinam grass (Brachiaria decumbens), cocklebur (common cocklebur, Xanthium strumarium), corn (Zea mays), large crabgrass (Digitaria sanguinalis), woolly cupgrass (Eriochloa villosa), foxtail, giant (giant foxtail, Setaria faberii), goosegrass (Eleusine indica), johnsongrass (Sorghum halepense), kochia (Kochia scoparia), lambsquarters (Chenopodium album), morningglory (Ipomoea coccinea), nightshade (eastern black nightshade, Solanum ptycanthum), nutsedge, yellow (yellow nutsedge, Cyperus esculentus), pigweed (Amaranthus retroflexus), ragweed (common ragweed, Ambrosia elation), soybean (Glycine max), common (oilseed) sunflower (Helianthus annuus), Russian thistle (Salsola kali) and velvetleaf (Abutilon theophrasti) were planted into a blend of loam soil and sand and treated preemergence with test chemicals formulated in a non-phytotoxic solvent mixture which included a surfactant.
(§3) At the same time, plants selected from these crop and weed species and also barley (winter barley, Hordeum vulgare), canarygrass (Phalaris minor), chickweed (common chickweed, Stellaria media) windgrass (Apera spica-venti) and deadnettle (henbit deadnettle, Lamium amplexicaule) were planted in pots containing Redi-Earth® planting medium (Scotts Company, 14111 Scottslawn Road, Marysville, Ohio 43041) comprising spaghnum peat moss, vermiculite, wetting agent and starter nutrients and treated with postemergence applications of test chemicals formulated in the same manner. Plants ranged in height from 2 to 18 cm (1- to 4-leaf stage) for postemergence treatments.
as §1, with “13” for “14”, “15” for “21”, “C,” for “E,”

[5] = test system: Waterhemp; assay: Test C postemergence: waterhemp
From the text: as §3
as §1, with “13” for “14”, “15” for “21”, “C,” for “E,”

[6] = 16 g ai/ha, scale 0 to 100 (0 no effect, 100 complete control)
[7] = 31 g ai/ha, scale 0 to 100 (0 no effect, 100 complete control)
[8] = Preemergence, 16 g ai/ha, scale 0 to 100 (0 no effect, 100 complete control)
[9] = Preemergence, 31 g ai/ha, scale 0 to 100 (0 no effect, 100 complete control)
[10] = Preemergence, 62 g ai/ha, scale 0 to 100
[11] = Preemergence, 125 g ai/ha, scale 0 to 100
[12] = Postemergence, 8 g ai/ha, scale 0 to 100
[13] = Postemergence, 16 g ai/ha, scale 0 to 100
[14] = Postemergence, 31 g ai/ha, scale 0 to 100
[15] = Postemergence, 62 g ai/ha, scale 0 to 100
[16] = Preemergence, 250 g ai/ha, scale 0 to 100, 0 no effect, 100 complete control
[17] = 62 g ai/ha, scale 0 to 100 (0 no effect, 100 complete control)
[18] = Postemergence, 31 g ai/ha, scale 0 to 100 (0 no effect, 100 complete control)

Structure (SMILES)	Plant response rating: Poinsettia, Wild ([1]; Preemergence, 16 g ai/ha)	Plant response rating: Poinsettia, Wild ([1]; Preemergence, 31 g ai/ha)	Plant response rating: Poinsettia, Wild ([1]; Preemergence, 62 g ai/ha)	Plant response rating: Poinsettia, Wild ([1]; Preemergence, 125 g ai/ha)	Plant response rating, Foxtail, Giant [2, 6]	Plant response rating, Foxtail, Giant [2, 7]	Plant response rating, Foxtail, Giant ([2]; 62 g ai/ha, scale 0 to 100)	Plant response rating, Corn [3, 8]	Plant response rating, Corn [3, 9]	Plant response rating, Corn [3, 10]	Plant response rating, Waterhemp [5, 17]	Plant response rating, Waterhemp ([5]; 250 g ai/ha, scale 0 to 100)	other results
Cc1nn(-c2ccc(F)cc2)nc1Cc1ccnc(C(F)(F)F)c1 [Compound 16, 4-[[2-(4-fluorophenyl)-5-methyl-2H-1,2,3-triazol-4-yl]methyl]-2-(trifluoromethyl)pyridine]	0	20	40	98	–	–	–	–	–	–	–	–	Plant response rating: Poinsettia, Wild ([1]; Preemergence, 8 g ai/ha): 0
Cc1nn(-c2ccc(C(F)(F)F)cc2)nc1Cc1ccnc(C(F)(F)F)c1 [Compound 47, 4-[[5-methyl-2-[4-(trifluoromethyl)phenyl]-2H-1,2,3-triazol-4-yl]methyl]-2-(trifluoromethyl)pyridine]	0	25	40	65	–	–	–	–	–	–	–	–	Plant response rating: Poinsettia, Wild ([1]; Postemergence, 250 g ai/ha): 100; Plant response rating: Poinsettia, Wild ([1]; Postemergence, 16 g ai/ha): 75; Plant response rating: Poinsettia, Wild ([1]; Postemergence, 31 g ai/ha): 75; Plant response rating: Poinsettia, Wild ([1]; Postemergence, 62 g ai/ha): 90; Plant response rating: Poinsettia, Wild ([1]; Postemergence, 125 g ai/ha): 98; Plant response rating: Poinsettia, Wild ([1]; Preemergence, 250 g ai/ha): 100
Cc1nn(-c2ccc(F)cc2)nc1Oc1ccnc(C(F)(F)F)c1 [Compound 129, 4-[[2-(4-fluorophenyl)-5-methyl-2H-1,2,3-triazol-4-yl]oxy]-2-(trifluoromethyl)pyridine]	0	0	0	25	–	–	–	–	–	–	–	–	Plant response rating: Poinsettia, Wild ([1]; Preemergence, 8 g ai/ha): 0
Fc1ccc(-n2nc(Cc3ccnc(C(F)(F)F)c3)c(OCC(F)(F)F)n2)cc1 [Compound 142]	–	–	–	–	35	75	100	0	0	0	–	–	Plant response rating, Foxtail, Giant ([2]; 125 g ai/ha, scale 0 to 100): 100; Plant response rating, Corn [3, 11]: 0
Cc1nn(-c2ccc(F)c(F)c2)nc1Oc1ccnc(C(F)(F)F)c1 [Compound 145]	–	–	–	–	–	–	–	–	–	–	–	–	Plant response rating, Corn [3, 12]: 5; Plant response rating, Corn [3, 13]: 10; Plant response rating, Corn [3, 14]: 10; Plant response rating, Corn [3, 15]: 10; Plant response rating, Corn ([3]; Postemergence, 125 g ai/ha, scale 0 to 100): 10
CCCc1nn(-c2ccc(F)cc2)nc1Cc1ccnc(C(F)(F)F)c1 [Compound 153]	–	–	–	–	40	85	100	0	0	0	98	98	Plant response rating, Waterhemp [4, 16]: 100; Plant response rating, Foxtail, Giant ([2]; 125 g ai/ha, scale 0 to 100): 100; Plant response rating, Foxtail, Giant ([2]; 250 g ai/ha, scale 0 to 100): 100; Plant response rating, Waterhemp [5, 7]: 98; Plant response rating, Corn [3, 11]: 0; Plant response rating, Corn ([3]; Preemergence, 250 g ai/ha, scale 0 to 100): 10
Cc1nn(-c2ccc(C(F)(F)F)c(F)c2)nc1Cc1ccnc(C(F)(F)F)c1 [Compound 162]	–	–	–	–	70	100	100	0	0	0	100	100	Plant response rating, Waterhemp [4, 16]: 100; Plant response rating, Foxtail, Giant ([2]; 4 g ai/ha, scale 0 to 100, 0 no effect, 100 complete control): 0; Plant response rating, Foxtail, Giant ([2]; 8 g ai/ha, scale 0 to 100, 0 no effect, 100 complete control): 20; Plant response rating, Waterhemp [5, 7]: 98; Plant response rating, Corn ([3]; Postemergence, 4 g ai/ha, scale 0 to 100): 5; Plant response rating, Corn [3, 12]: 5; Plant response rating, Corn [3, 13]: 10; Plant response rating, Corn [3, 14]: 10; Plant response rating, Corn [3, 15]: 10; Plant response rating, Corn ([3]; Preemergence, 4 g ai/ha, scale 0 to 100, 0 no effect, 100 complete control): 0; Plant response rating, Corn ([3]; Preemergence, 8 g ai/ha, scale 0 to 100, 0 no effect, 100 complete control): 0
CCc1nn(-c2ccc(F)cc2)nc1Oc1ccnc(C(F)(F)F)c1 [Compound 166]	–	–	–	–	–	–	–	–	–	–	–	98	Plant response rating, Waterhemp [4, 18]: 90
CCCc1nn(-c2ccc(C(F)(F)F)c(F)c2)nc1Oc1ccnc(C(F)(F)F)c1 [Compound 185]	–	–	–	–	–	–	–	–	–	–	90	–	Plant response rating, Waterhemp [4, 18]: 90
